In patent US8871933B2, “Purified pyrroloquinolinyl-pyrrolidine-2,5-dione compositions and methods for preparing and using same” (ArQule, Inc., priority 2009, dated 2014):

How the values were obtained:
[1] = tested on: MDA-MB-231 human breast cancer cells; assay: Human breast cancer xenograft; format: in vivo, female athymic nude mice
Experimental: MDA-MB-231 human breast cancer cells were inoculated subcutaneously into female athymic nude mice (8.0×10^6 cells/mouse) and allowed to form palpable tumors. Once the tumors reached approximately 60 mm^3, the animals were treated orally with (−)-trans-3-(5,6-dihydro-4H-pyrrolo[3,2,1-ij]quinolin-1-yl)-4-(1H-indol-3-yl)pyrrolidine-2,5-dione at 200 mg/kg or vehicle control daily (5 consecutive days, followed by a 2 day dosing holiday). (−)-trans-3-(5,6-dihydro-4H-pyrrolo[3,2,1-ij]quinolin-1-yl)-4-(1H-indol-3-yl)pyrrolidine-2,5-dione was formulated in PEG 400:20% Vitamin E TPGS (60:40). The animals received a total of 20 doses of (−)-trans-3-(5,6-dihydro-4H-pyrrolo[3,2,1-ij]quinolin-1-yl)-4-(1H-indol-3-yl)pyrrolidine-2,5-dione or vehicle control. Tumors were measured throughout treatment and the post-treatment observation period. Each point represents the mean±SEM of ten tumors. (See, FIG. 8)

phospho-c-Met = target: T1, phospho-c-Met (Homo sapiens, UniProt P08581); assay: Phospho-c-Met in HT-29 xenograft tumors (immunohistochemistry, Western blotting); format: in vivo, mice; settings: single dose 300 mg/kg, 24 hours later
T1 construct: from tissue; host or cells: HT-29 xenograft tumour in mice
Experimental: A human colon cancer xenograft model with HT-29 human colon cancer cells was established as described in Example 23. The tumor-bearing mice were treated with a single dose of (−)-trans-3-(5,6-dihydro-4H-pyrrolo[3,2,1-ij]quinolin-1-yl)-4-(1H-indol-3-yl)pyrrolidine-2,5-dione (300 mg/kg). The reduction of phospho-c-Met was detected immunohistochemically 24 hours later. […] Western blotting of the tumor sample for phospho-c-Met confirmed the immunohistochemical analysis (FIG. 11, Panel B).

T1 sequence (P08581 25-1390): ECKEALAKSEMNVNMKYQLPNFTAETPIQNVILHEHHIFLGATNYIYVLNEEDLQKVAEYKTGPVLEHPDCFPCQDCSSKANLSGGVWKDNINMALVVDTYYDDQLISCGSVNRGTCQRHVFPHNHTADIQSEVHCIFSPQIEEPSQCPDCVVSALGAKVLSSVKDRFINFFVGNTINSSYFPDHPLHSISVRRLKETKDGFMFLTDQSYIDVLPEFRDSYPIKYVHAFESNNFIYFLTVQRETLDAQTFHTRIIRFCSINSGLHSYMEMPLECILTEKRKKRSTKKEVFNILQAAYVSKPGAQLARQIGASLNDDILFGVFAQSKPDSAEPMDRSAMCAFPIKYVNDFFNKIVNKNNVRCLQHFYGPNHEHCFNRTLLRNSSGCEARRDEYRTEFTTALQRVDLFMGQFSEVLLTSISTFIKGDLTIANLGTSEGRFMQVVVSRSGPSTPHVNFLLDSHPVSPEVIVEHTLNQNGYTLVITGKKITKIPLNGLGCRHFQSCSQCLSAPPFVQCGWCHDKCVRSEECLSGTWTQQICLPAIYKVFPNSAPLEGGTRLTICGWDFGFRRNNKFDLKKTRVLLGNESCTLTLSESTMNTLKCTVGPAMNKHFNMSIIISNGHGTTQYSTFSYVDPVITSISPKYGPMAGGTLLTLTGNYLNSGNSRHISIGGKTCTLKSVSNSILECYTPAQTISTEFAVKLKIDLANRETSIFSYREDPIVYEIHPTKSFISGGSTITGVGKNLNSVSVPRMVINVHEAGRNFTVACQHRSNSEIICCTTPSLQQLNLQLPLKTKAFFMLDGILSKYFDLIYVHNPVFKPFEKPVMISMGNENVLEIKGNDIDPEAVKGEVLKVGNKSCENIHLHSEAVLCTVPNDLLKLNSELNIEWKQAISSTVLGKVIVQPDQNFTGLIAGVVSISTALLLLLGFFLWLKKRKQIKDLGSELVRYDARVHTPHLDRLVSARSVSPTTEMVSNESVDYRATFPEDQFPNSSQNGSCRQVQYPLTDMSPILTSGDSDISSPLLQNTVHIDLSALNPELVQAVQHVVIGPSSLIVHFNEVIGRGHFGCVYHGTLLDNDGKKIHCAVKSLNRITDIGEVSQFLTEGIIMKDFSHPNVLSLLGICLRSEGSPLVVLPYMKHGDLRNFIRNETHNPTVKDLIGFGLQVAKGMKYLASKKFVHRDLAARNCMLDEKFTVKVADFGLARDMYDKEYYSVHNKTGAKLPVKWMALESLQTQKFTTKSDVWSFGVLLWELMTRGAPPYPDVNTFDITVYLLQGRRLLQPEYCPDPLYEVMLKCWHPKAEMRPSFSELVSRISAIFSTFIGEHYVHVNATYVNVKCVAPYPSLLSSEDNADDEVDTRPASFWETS

O=C1NC(=O)[C@@H](c2cn3c4c(cccc24)CCC3)[C@@H]1c1c[nH]c2ccccc12 (single isomer, unassigned) [(−)-trans-3-(5,6-dihydro-4H-pyrrolo[3,2,1-ij]quinolin-1-yl)-4-(1H-indol-3-yl)pyrrolidine-2,5-dione]
Tumor growth inhibition ([1]; 200 mg/kg orally, daily 5 days on / 2 days off, 20 doses, p=0.009): 79% | change in body weight ([1]; oral administration at 200 mg/kg): no significant change in body weight | amount of phospho-c-Met in tumor (phospho-c-Met): significant decrease in the amount of phospho-c-Met
